Laboratory results as given in ChEMBL document CHEMBL1140806, “Optimization of the heterocyclic core of the quinazolinone-derived CXCR3 antagonists” (Bioorg Med Chem Lett, 2008).

Key:
[1] = Oral bioavailability in rat at 2 mg/kg; format: ADME, organism-based; settings: in vivo
[2] = Mean residence time in rat at 0.5 mg/kg, iv; format: ADME, organism-based; design: dose 0.5 mg/kg, route intravenous; settings: in vivo
[3] = biological target: T1, C-X-C chemokine receptor type 3 (Homo sapiens, UniProt P49682); test: Displacement of [125I]IP-10 from CXCR3 receptor expressed in human PBMC in RPMI-1640 buffer supplemented with 0.5% BSA
T1 sequence (P49682 whole entry): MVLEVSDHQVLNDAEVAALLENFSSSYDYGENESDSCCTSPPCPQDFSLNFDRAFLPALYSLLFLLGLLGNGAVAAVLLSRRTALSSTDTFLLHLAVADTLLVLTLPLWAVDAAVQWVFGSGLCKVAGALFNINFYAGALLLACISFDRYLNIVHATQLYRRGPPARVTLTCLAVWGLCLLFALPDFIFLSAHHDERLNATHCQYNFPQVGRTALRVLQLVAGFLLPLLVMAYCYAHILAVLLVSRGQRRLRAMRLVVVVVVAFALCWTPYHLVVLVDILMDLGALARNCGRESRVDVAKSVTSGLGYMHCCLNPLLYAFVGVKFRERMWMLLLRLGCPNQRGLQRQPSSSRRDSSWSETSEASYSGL

[4] = Clearance in rat at 0.5 mg/kg, iv; format: ADME, organism-based; design: dose 0.5 mg/kg, route intravenous; settings: in vivo
[5] = biological target: T1, C-X-C chemokine receptor type 3; test: Displacement of [125I]IP-10 from CXCR3 receptor expressed in human PBMC in EDTA-anti-coagulated human plasma

| bioavailability [1] [%] | MRT [2] [min] | IC50 [3] [nM] | clearance [4] [mL/min/kg] | IC50 [5] [nM] | Ki [3] [nM] | SMILES |
| --- | --- | --- | --- | --- | --- | --- |
| 31 | 22.2 | 2 | 39.7 | 27 | – | CCS(=O)(=O)CCN(C(=O)Cc1ccc(F)c(C(F)(F)F)c1)[C@H](C)c1nc2ncccc2cc1-c1ccc(C#N)cc1 |
| – | 21 | 4 | 63 | 60 | – | CCS(=O)(=O)CCN(C(=O)Cc1ccc(F)c(C(F)(F)F)c1)[C@H](C)c1nc2c(c(=O)n1-c1ccc(C#N)cc1)CCCN2C |
| 47 | 31.8 | – | 39.7 | – | – | CCS(=O)(=O)CCN(C(=O)Cc1ccc(F)c(C(F)(F)F)c1)[C@H](C)c1nc2ncccc2c(=O)n1-c1ccc(C#N)cc1 |
| – | – | 9 | – | 121 | – | CCS(=O)(=O)CCN(C(=O)Cc1ccc(F)c(C(F)(F)F)c1)[C@H](C)c1nc2ccccc2nc1-c1ccc(C#N)cc1 |
| 17 | 90 | 0.8 | 42.2 | 21 | – | CCS(=O)(=O)CCN(C(=O)Cc1ccc(F)c(C(F)(F)F)c1)[C@H](C)c1nc2ccccc2cc1-c1ccc(C#N)cc1 |
| – | – | 18 | – | 523 | – | CCS(=O)(=O)CCN(C(=O)Cc1ccc(F)c(C(F)(F)F)c1)[C@H](C)c1nn2ccccc2c1-c1ccc(C#N)cc1 |
| 24 | 15.6 | – | 36.3 | 21 | 3 | CCS(=O)(=O)CCN(C(=O)Cc1ccc(F)c(C(F)(F)F)c1)[C@H](C)c1nc2ccccn2c1-c1ccc(C#N)cc1 |
| – | – | 5 | – | 115 | – | CCS(=O)(=O)CCN(C(=O)Cc1ccc(F)c(C(F)(F)F)c1)[C@H](C)c1cc2ccccc2nc1-c1ccc(C#N)cc1 |
| 24 | 84 | – | 4 | – | – | CCS(=O)(=O)CCN(C(=O)Cc1ccc(F)c(C(F)(F)F)c1)[C@H](C)c1nc2ccccn2c(=O)c1-c1ccc(C#N)cc1 |
| – | – | 6 | – | 35 | – | CCS(=O)(=O)CCN(C(=O)Cc1ccc(F)c(C(F)(F)F)c1)[C@H](C)c1nc2ccccc2n1-c1ccc(C#N)cc1 |
| – | – | – | – | 79 | – | CCS(=O)(=O)CCN(C(=O)Cc1ccc(F)c(C(F)(F)F)c1)[C@H](C)c1nc2ncccn2c1-c1ccc(C#N)cc1 |
